For this assay, the system named is venous thrombs (left jugular vein of rats). The experiment in a line: antithrombotic action in rats: thromb formation in the supercooled left jugular vein, thromb isolated and weighed 4 hours later. Type of assay: in vivo. Particulars: 10 mg/kg, administered orally. How it is done:
The left jugular vein of rats weighing 170 to 180 g was exposed under ether narcosis and supercooled to -12° C. for 2 minutes to stimulate thromb formation. The thromb was isolated from the vein 4 hours later, and was weighed. The test animals were given the test preparation in tragacanth mucilage immediately before supercooling the wall of the blood vessel. As a result, the protective antithrombotic activity was tested in the first 4 hours after stimulating thromb formation.

This is an account of results in US4207325A, “4-Substituted pyrazoles” (Bayer Aktiengesellschaft, priority 1975, dated 1980).

Consider `Cc1nn(C(C)c2ccc(Cl)c(Cl)c2)c(OC(=O)c2ccc(F)cc2)c1-c1ccccc1` (stereo not drawn) [Example 1, 5-(4-Fluorobenzoyloxy)-3-methyl-phenyl-1-(α-methyl-3,4-dichlorobenzyl)-pyrazole], for which, for the setting “4 hour period of action, vs control without active compound”, the “Inhibition in % (reduction of thromb size)” value amounted to 56%. The “Thromb size, mean value” (4 hours, 12 experiments, control 115 ± 12 (14 experiments)) stood at 51 ± 10 µg.
